# Experimental data: patent US20250114325A1 (JIANGSU PROVINCE HOSPITAL OF CHINESE MEDICINE, priority 2022, published 2025)
# Columns and labels:
# Assay type in all cases: cell-based, human
# [1] = system: Hela cells; assay: Cell proliferation experiment (CCK-8 cell viability); settings: single agent, 24 h, 48 h, 72 h, dose and time-dependent
# Experimental: (§1) Assay of cell viability by CCK-8 kit: Cells (cell density: 1000 cells/well) were inoculated in a 96-well plate and cultured for 24 hours. […] Cell proliferation was detected using Cell Counting Kit-8 (CCK-8).
# [2] = system: SiHa cells; assay: as above; settings: single agent, 24 h, 48 h, 72 h, dose and time-dependent
# Experimental: as §1
# [3] = system: Hela cells; assay: Annexin V-AF647/PI flow cytometry apoptosis assay; settings: added to Atr-I (BzATP 100 μM or JNJ 20 μM); 48 h
# Experimental: (§2) The cell lines selected were human cervical cancer Hela (HPV18+) and Siha (HPV16+) cell lines.
# (§3) The proportion of apoptotic cells was measured using the Annexin V-AF647/PI Apoptosis Kit (E-CK-A213; Elabscience Biotechnology, Wuhan, China). The cells in logarithmic growth phase were used and seeded in a culture bottle at a suspension density of 1×10^6 cells/mL, and then cultured in a CO2 incubator for 24 h. […] Subsequently, the cells were re-suspended in 500 μL of the binding buffer. After adding 5 μL of Annexin V-AF647 and 5 μL of PI to the cell suspension, respectively, the cell cycle was assayed using FACSCalibur flow cytometry (BD Biosciences, San Jose, CA, USA). The data were analyzed with FlowJo software (FlowJo, Ashland, OR, USA).
# [4] = system: SiHa cells; assay: Annexin V-AF647/PI flow cytometry apoptosis assay; settings: added to Atr-I (BzATP 100 μM or JNJ 20 μM); 48 h
# Experimental: as §2, §3
structure (smiles),measurement,setting,value
Nc1ncnc2c1ncn2[C@@H]1O[C@H](COP(=O)(O)OP(=O)(O)OP(=O)(O)O)[C@@H](OC(=O)c2ccc(C(=O)c3ccccc3)cc2)[C@H]1O [BzATP],inhibition of growth of Hela cells,[1],significantly inhibited the growth
same,inhibition of growth of SiHa cells,[2],significantly inhibited the growth
same,effect on Atr-I-induced apoptosis in Hela cells,[3],inhibited Atr-I-induced apoptosis in Hela cells
same,effect on Atr-I-induced apoptosis in SiHa cells,[4],had no effect on Atr-I-induced apoptosis in SiHa cells
